Among the data in ChEMBL document CHEMBL1122529, “Synthesis of 5-aryl-2H-tetrazoles, 5-aryl-2H-tetrazole-2-acetic acids, and [(4-phenyl-5-aryl-4H-1,2,4-triazol-3-yl)thio]acetic acids as possible superoxide scavengers and antiinflammatory agents” (1984) are inhibition, inhibition in vivo and Mean index values, retold here.

SMILES strings stand for the structures.

Holding throughout (type): functional
The species entered for assay [1] is Rattus norvegicus. Description: In Vitro superoxide scavenging activity at a concentration of 1.0 x 10E4 M.
Assay [2] is filed under the species Rattus norvegicus. Description: In Vitro superoxide scavenging activity by the analysis of variance method at concentration of 0.1 x 10E4 M.
The species entered for assay [3] is Rattus norvegicus. Description: In Vitro superoxide scavenging activity by the analysis of variance method at concentration of 0.5 x 10E4 M.
In assay [4] the test system is Rattus norvegicus. Description: Percentage inhibition of Carrageenan-induced rat paw edema at a concentration of 0.3 mg/kg. In general terms: Carrageenan injected into the paw causes an acute inflammation.
In assay [5] the test system is Rattus norvegicus. Description: Percentage inhibition of reverse passive Arthus reaction was reported at a concentration of 30 mg/kg.
For assay [6], the system named is Rattus norvegicus. Description: The mean index of reverse passive Arthus reaction was calculated 3 h-postinjection at a concentration of 30 mg/kg.
Assay [7] concerns Rattus norvegicus. As to the kind of experiment: Percentage inhibition of Carrageenan-induced rat paw edema at a concentration of 32 mg/kg.
For assay [8], the species on record is Rattus norvegicus. Description: In Vitro superoxide scavenging activity by the analysis of variance method at concentration of 2.0 x 10E4 M.

Take `O=C(O)CSc1nnc(-c2ccccc2)n1-c1ccccc1`: in the assay listed under Rattus norvegicus [1], the inhibition worked out at 0%.
Consider `O=C(O)CSc1nnc(-c2ccc(O)c(O)c2)n1-c1ccccc1`, for which the values for the inhibition in the assay filed under Rattus norvegicus [1], in the assay listed under Rattus norvegicus [2] and in the assay listed under Rattus norvegicus [3] were 21.5%, 8.3% and 11.8%, respectively.
On to `O=C(O)Cn1nnc(-c2ccc(O)c(O)c2)n1`, for which the inhibition in the assay listed under Rattus norvegicus [1] is 18.8%; in the assay listed under Rattus norvegicus [2], 0%; in the assay filed under Rattus norvegicus [3] it was 7.9%.
For `Oc1ccc(-c2nn[nH]n2)cc1O`, in that order: 37.5%, 6.9% and 23%.
Take `O=C(O)Cn1nnc(-c2ccc(O)cc2)n1`: in the assay listed under Rattus norvegicus [1], the inhibition was 0%.
Take `C[C@@H]1C[C@H]2[C@@H]3CCC4=CC(=O)C=C[C@]4(C)[C@@]3(F)[C@@H](O)C[C@]2(C)[C@@]1(O)C(=O)CO` [DEXAMETHASONE]: the inhibition in vivo at 0.3 mg/kg with Rattus norvegicus [4] was found to be 69%.
For the compound `COc1cc(-c2nnc(SCC(=O)O)n2-c2ccccc2)cc(OC)c1OC`, the inhibition in the assay filed under Rattus norvegicus [1] was determined as 0%.
`COc1cc(-c2nnn(CC(=O)O)n2)cc(OC)c1OC` gave an inhibition in the assay filed under Rattus norvegicus [1] of 0%.
Still for that read-out and setting: under `COc1ccc(-c2nn[nH]n2)cc1` stands 0%; under `COc1ccc(-c2nnc(SCC(=O)O)n2-c2ccccc2)cc1`, 0%.
`O=C(O)Cn1nnc(-c2cc(O)c(O)c(O)c2)n1`: the inhibition in vivo at 30 mg/kg with Rattus norvegicus [5] is -28.7%. Moreover, the inhibition in the assay listed under Rattus norvegicus [1] was 78%; in the assay listed under Rattus norvegicus [2] it was 15.3%; in the assay filed under Rattus norvegicus [3], 55.9%. In the assay with Rattus norvegicus [6], the Mean index was 52. The inhibition in vivo at 32 mg/kg in the assay with Rattus norvegicus [7] worked out at 14%.
`c1ccc(-c2nnn[nH]2)cc1` displayed an inhibition in the assay filed under Rattus norvegicus [1] of 0%.
The same measure, in the same setting: next, `COc1ccc(-c2nnn(CC(=O)O)n2)cc1`: 0%.
Still for that read-out and setting: under `COc1ccc(-c2nnc(SCC(=O)O)n2-c2ccccc2)cc1OC` stands 0%; under `COc1ccc(-c2nn[nH]n2)cc1OC`, 0%.
Regarding `O=C(O)CSc1nnc(-c2cc(O)c(O)c(O)c2)n1-c1ccccc1`, the inhibition in vivo at 30 mg/kg in the assay with Rattus norvegicus [5] was -28.2%. The inhibition in the assay filed under Rattus norvegicus [1] turned out to be 65.7%; in the assay filed under Rattus norvegicus [2], 16.7%; in the assay filed under Rattus norvegicus [3], 22.1%. Further, the Mean index in the assay with Rattus norvegicus [6] is on record as 52. The inhibition in vivo at 32 mg/kg with Rattus norvegicus [7] was 18%.
In the assay filed under Rattus norvegicus [1], `O=C(O)CSc1nnc(-c2ccc(O)cc2)n1-c1ccccc1` yielded an inhibition of 11.6%.
Take `Oc1cc(-c2nn[nH]n2)cc(O)c1O`: the inhibition in vivo at 30 mg/kg in the assay with Rattus norvegicus [5] was -5%. Besides, the values for the inhibition in the assay filed under Rattus norvegicus [1], in the assay listed under Rattus norvegicus [2] and in the assay listed under Rattus norvegicus [3] were 66.9%, 16% and 48.4%, respectively. The Mean index in the assay with Rattus norvegicus [6] is 42.6. Also, in the assay on Rattus norvegicus [7], the inhibition in vivo at 32 mg/kg is 6%.
Compound `COc1cc(-c2nn[nH]n2)cc(OC)c1OC` showed an inhibition in the assay filed under Rattus norvegicus [1] of 0%.
`Oc1ccc(-c2nn[nH]n2)cc1` came in with an inhibition in the assay listed under Rattus norvegicus [8] of 0%.
For the compound `COc1ccc(-c2nnn(CC(=O)O)n2)cc1OC`, in the assay listed under Rattus norvegicus [1], the inhibition is 0%.
In the case of `CCCCC1C(=O)N(c2ccccc2)N(c2ccccc2)C1=O` [PHENYLBUTAZONE], the inhibition in vivo at 32 mg/kg in the assay on Rattus norvegicus [7] stood at 47%.
`O=C(O)Cn1nnc(-c2ccccc2)n1` registered an inhibition in the assay filed under Rattus norvegicus [1] of 0%.

As a reminder, the inhibition is the relative decrease from the control value, in per cent. A higher inhibition goes with a strong effect. One may read the inhibition in vivo as the drop in the measured response relative to a control, in per cent.
